# In paper PMC12356476, “Transferrin conjugated pH/NIR-responsive black phosphorus nanoplatform: A novel multimodal approach for breast cancer theranostics” (International Journal of Pharmaceutics: X, 2025):
# Tests used:
# [1] = tested on: 4 T1 cells; assay: MTT cytotoxicity assay without irradiation; format: cell-based, murine; conditions: 4 T1 tumour cellular toxicity after 48 h
# Protocol: The 4 T1 cell line, a murine breast tumour cell line derived from BALB/cf3H mice, was obtained from Elabsciences, Inc. The cytotoxicity of BP-based nanoformulation were evaluated using MTT assay. […] After 48 h, media was discarded and added with 50 μL of MTT reagent (2 mg/ml). The samples were then kept for 4 h of incubation and added with 50 μL DMSO to solubilize the formazan crystals. OD (optical density) was evaluated at 540 nm in a microplate reader (ELx800). Absorbance data were observed, and percentage tumour cell growth inhibition was measured using the following formula: Percentage growth inhibition=Absorbance of Blank−Absorbance of test/Absorbance of BlankX100
# [2] = tested on: 4 T1 cells; assay: In vitro PTT study (MTT with 808 nm NIR irradiation); format: cell-based, murine; conditions: 4 T1 tumour cellular toxicity after 48 h; 808 nm laser 1.0 W/cm^2 for 10 min
# Protocol: Based on the results of cytotoxicity in 4 T1 cells produced by the test compounds, five concentrations were selected (100, 10, 1, 0.1, 0.001) to evaluate the extent of cytotoxicity in the presence of NIR radiation of 808 nm. 4 T1 cell line was seeded and incubated for 24 h. After refreshing the medium, the wells were added with samples at 37 °C for 4 h, and irradiated with 808 nm laser (1.0 W/cm^2) for 10 mins incubated till 48 h ([Phan et al., 2017]; [Xu et al., 2021]).
# Absorbance data were observed, and percentage tumour cell growth inhibition was measured using the following formula: Percentage growth inhibition=Absorbance of Blank−Absorbance of test/Absorbance of BlankX100
# [3] = tested on: 4 T1-breast tumour bearing BALB/c mice; assay: Histopathological analysis (H&E) of tumour tissues and other organs; format: in vivo; parameters: key to Tumour cells / Necrosed area / Malignant features like nuclear pleomorphism, hyperchromatism / inflammation / Muscle invasion: -: Nil; + few; ++ Many; +++ Abundant; conditions: for Malignant features like nuclear pleomorphism, hyperchromatism / Mitotic count/10HPF / Muscle invasion / Necrosed area / Tumour cells / inflammation: tumour tissue, 14 days
# Protocol: (§1) On the last day of the treatment (Day 14), the BALB/c mice were euthanized by cervical dislocation and major organs were collected, washed and fixed with 4 % paraformaldehyde for Hematoxylin and Eosin (H&E) staining.
# Three BALB/c mice from each group were sacrificed after 14 days of treatment. The tissues (liver, spleen, lung, heart, kidney, and breast tumour) were isolated and fixed with 10 % formalin for 24 to 48 h. The tissue slides were examined using the LX-500 LED trinocular Research microscope, and pictures were captured using the MiaCam CMOS AR 6pro microscope camera coupled to image AR pro software. The slides were graded according to tumour cells, necrosed areas, malignant features like nuclear pleomorphism and hyperchromatism, inflammation, muscle invasion and mitotic count counted in 10 consecutive high-power fields (HPFs).
# [4] = In vivo pharmacokinetics after i.v. injection; conditions: 5 mg/kg DOX equivalent, BALB/c mice, plasma, Mean ± SD, n = 3
# Protocol: Female BALB/c mice (6–8 weeks old, 18–25 g) were obtained from a certified animal supplier and used for the study. Prior to the start of the experiment, all animals were housed under standard laboratory conditions (12-h light/dark cycle, temperature 22 ± 2 °C, relative humidity 50–60 %) with ad libitum access to food and water. A two-week acclimatization period was provided to allow the animals to adjust to the laboratory environment. […] Mice were randomly assigned to experimental groups (n = 3 per group), and all efforts were made to minimize suffering. The allocation and data collection were conducted in a blinded manner wherever applicable. No animals were excluded from the analysis unless stated otherwise.
# Blood sample was collected in EDTA solution containing tubes at intervals ranging from 5 min to 48 h post-administration and then centrifuged to separate the plasma ([Zeng et al., 2019]).
# [5] = tested on: chorioallantoic membrane (CAM) of fertilized chicken eggs; assay: Chorioallantoic membrane (CAM) assay; format: in vivo; conditions: 200 μL applied on day 8, observed at 8 and 24 h; DOX equivalent 200 μg
# Protocol: The CAM assay is a method used to assess the effects of chemical agents/formulations on the developing, highly vascularized CAM. Fertilized chicken eggs were obtained, disinfected with 70 % ethanol, and incubated in a humidified environment. The eggs were kept horizontal and regularly rotated. […] Lenalidomide was considered as positive and normal saline (NS) as negative control. Following application, the egg's cavity was resealed with scotch tape and returned to the incubator. Changes in the blood vessel morphology were examined at 8 and 24 h after incubation ([Raychaudhuri et al., 2021]).
# [6] = tested on: 4 T1 cells; assay: Cellular uptake by flow cytometry; format: cell-based, murine; conditions: ~5 μg/mL, no irradiation
# Protocol: To understand the cellular uptake of nanoformulations, flow cytometry was employed. 4 T1 cells were seeded into 6-well plates and allowed to adhere for 24 h prior to treatment. […] Followed by the removal of culture medium after 2 h of treatment, test samples were added, and the laser groups were exposed to NIR-II 808 nm laser for 5 min and kept in incubator for 2 h. The plates were taken and added with trypsin for the detachment of 4 T1 cells. It was then collected, centrifuged to separate free DOX and BP-based nanoformulation, and analyzed using a flow cytometer (BD Accuri). Untreated 4 T1 cells were used as a control group.
# [7] = tested on: 4 T1-breast tumour bearing BALB/c mice; assay: Pharmacodynamic study (antitumour efficacy); format: in vivo; conditions: i.v., 5 mg/kg eq. to DOX, 14 days
# Protocol: Female BALB/c mice were given a subcutaneous injection of 4 T1 cells (1.5 × 10^6 cells) in 100 μL of cold PBS, into the dorsal flank. The breast tumour appeared in 10–14 days while the mice were under close observation. Using a vernier caliper, the length and width were measured, and the tumour volume was measured. When the tumour volume reached about 75 to 100 mm^3, the mice were grouped randomly to 10 groups (n = 3):
# Group I: Saline (i v injection).
# Group II: Saline + NIR (i v injection).
# Group III: BPNSs (Dose: 5 mg/Kg) (i v injection).
# Group IV: BPNSs + NIR (Dose: 5 mg/Kg) (i v injection).
# After 2 h of injection, the laser irradiation groups were exposed to 808 nm NIR laser (1 W/cm^2) for 5 min. The starting day of the treatment was considered as 0th day and checked for body weight in every day and tumour volume in every 2 days. The following equation was used for the measurement of tumour volume (V): Volumemm^3=Width^2XLength/2
# as §1
# [8] = tested on: 4T1 tumour bearing BALB/c mice; assay: Blood (haematological) parameters estimation; format: in vivo
# Protocol: A total of about 100 μL of blood was collected from the retroorbital route and collected into a tube with 10 μL of EDTA for a complete blood count such as RBC, WBC, platelets and hemoglobin analysis using Nihon Kohden blood analyzer (celltac alpha-MEK-6550, India).
# [9] = tested on: 4 T1-breast tumour bearing BALB/c mice; assay: Biodistribution study by in vivo fluorescence imaging; conditions: i.v., imaging 0.5 to 36 h post-injection
# Text: In vivo biodistribution study of plain DOX, and BP-DOX@PDA-TF were monitored with an in vivo imaging system. […] Using IVIS® containing 620 nm and 780 nm filters respectively for excitation and emission, tumour accumulation trends were examined across various time periods following injection.
# [10] = after 14 days of treatment and NIR Irradiation
# [11] = after 14 days of treatment, no NIR irradiation
structure (smiles),measurement,setting,value
"COc1cccc2c1C(=O)c1c(O)c3c(c(O)c1C2=O)C[C@@](O)(C(=O)CO)C[C@@H]3O[C@H]1C[C@H](N)[C@H](O)[C@H](C)O1 [DOX, Doxorubicin]","IC50 value, Non NIR Irradiated",[1],2.84 µg/mL
same,"IC50 value, NIR Irradiated",[2],1.58 µg/mL
same,liver pathology,"[3]; H&E, 14 days of treatment",severe hypertrophy and liver congestion
same,"Malignant features like nuclear pleomorphism, hyperchromatism",[3]; NIR irradiated,+++
same,Mitotic count/10HPF,[3]; NIR irradiated,23 /10HPF
same,Muscle invasion,[3]; NIR irradiated,-
same,Necrosed area,[3]; NIR irradiated,+++
same,Tumour cells,[3]; NIR irradiated,+++
same,inflammation,[3]; NIR irradiated,-
same,"Malignant features like nuclear pleomorphism, hyperchromatism",[3]; NIR non-irradiated,++
same,Mitotic count/10HPF,[3]; NIR non-irradiated,4 /10HPF
same,Muscle invasion,[3]; NIR non-irradiated,-
same,Necrosed area,[3]; NIR non-irradiated,-
same,Tumour cells,[3]; NIR non-irradiated,+
same,inflammation,[3]; NIR non-irradiated,+++
same,AUC(0-t),[4],2976.15 ± 1191.277 ng·h/mL
same,AUC(0-∞),[4],3168.98 ± 1086.246 ng·h/mL
same,Cmax,[4],469.73 ± 93.78 ng/mL
same,Ke,[4],0.141 ± 0.05 h⁻¹
same,T max,[4],4.98 ± 0 min
same,t1/2,[4],5.47 ± 2.15 h
same,"toxicity to the CAM (coagulation, hemorrhage, vascular morphology, embryotoxicity)",[5],"notable sign of toxicity such as coagulation, bleeding, and embryo toxicity"
same,cellular uptake (DOX fluorescence intensity),[6],greater fluorescence intensity than BP-based NPs
same,breast tumour growth suppression,[7],failed to efficiently suppress the breast tumour growth
same,HCT,[8]; [10],46.76±4.31%
same,HGB,[8]; [10],13.88 ± 1.28 g/dL
same,MCH,[8]; [10],16.35 ± 1.51 pg
same,MCV,[8]; [10],50.93 ± 3.10 fL
same,MPV,[8]; [10],6.39 ± 0.59 fL
same,PDW,[8]; [10],14.34 ± 1.32 fL
same,PLT,[8]; [10],924.2±85.27 ×10^3/µL
same,RBC,[8]; [10],7.8±1.31 ×10^6/µL
same,RDW‐CV,[8]; [10],13.61±1.26%
same,RDW‐SD,[8]; [10],35.71 ± 3.29 fL
same,WBC,[8]; [10],8.77±0.81 10^3/µL
same,HCT,[8]; [11],42.69±4.36%
same,HGB,[8]; [11],14.57 ± 0.42 g/dL
same,MCH,[8]; [11],16.27 ± 1.64 pg
same,MCV,[8]; [11],52.77 ± 4.81 fL
same,MPV,[8]; [11],6.37 ± 1.21 fL
same,PDW,[8]; [11],14.77 ± 2.06 fL
same,PLT,[8]; [11],940±75.19 ×10^3/µL
same,RBC,[8]; [11],9.39±1.2 ×10^6/µL
same,RDW‐CV,[8]; [11],13.77±0.38%
same,RDW‐SD,[8]; [11],38.17 ± 3.09 fL
same,WBC,[8]; [11],9.73±1.5 10^3/µL
same,fluorescence signal of DOX at the tumour region,[9],significantly reduced signal
